Where two headings read alike, the source gives them in different places.
Columns and labels:
[1] = test system: AsPC1, BxPC3, PANC1, MIAPaCa2, PO2, A375VR, SKMEL-28, HCT-116, 4T1, U87, U251, T98G, CT2A cells; test: Cytotoxicity studies, sulforhodamine B (SRB) assay; format: cell-based, human and murine; settings: range over all the cell lines, read-out: IC50 (cell survival)
Protocol: FIGS. 1A to 1E show the effect of Pimavanserin tartrate suppresses the cell survival of pancreatic cancer cells. FIGS. 1F to 1G show the effect of pimavanserin tartrate suppresses the cell survival of melanoma cells. […] In the figures, the following cancer cells were evaluated: AsPC1 cells (FIG. 1A), BxPC3 cells (FIG. 1B), PANC1 cells (FIG. 1C), MIAPaCa2 cells (FIG. 1D), PO2 cells (FIG. 1E), A375VR cells (FIG. 1F), SKMEL-28 cells (FIG. 1G), HCT-116 cells (FIG. 1H), 4T1 cells (FIG. 1I), U87 cells (FIG. 1J), U251 cells (FIG. 1K), T98G vells (FIG. 1L), CT2A cells (FIG. 1M) which were treated with varied concentrations of pimavanserin tartrate for 24, 48 and 72 hours. Cell survival was determined by sulforhodamine B assay to estimate the IC50 values. The studies were repeated independently for three times with 4 replicates in each test. Values are plotted as mean±SD and the statistical significance level was considered as p<0.05.
Cell culture. Human pancreatic cancer cell lines AsPC1, BxPC3, PANC1, MIAPaCa2 cells, SKMEL-28 human melanoma cells, U87, U251, T98G human glioblastoma cells, and human colon cancer cell line HCT-116 were purchased from ATCC (Rockville, Md.). CT2A murine glioblastoma cells was a kind gift from Dr. Jill Edgar, Boston College, Boston. Cell lines were authenticated by STR analysis at TTUHSC core facilities (Lubbock, Tex.). […]
Cytotoxicity studies. The cytotoxic effects of pimavanserin tartrate in AsPC1, BxPC3, PANC1, MIAPaCa2, PO2, A375VR, SKMEL-28, HCT-116, 4T1, U87, U251, T98G, CT2A cells were determined by sulforhodamine B (SRB) assay. […] The optical density was measured using plate reader (Biotek instruments) as described by the present inventors (12).
Pimavanserin inhibited the proliferation of cancer cells, which included pancreatic cancer, melanoma, colon cancer, glioblastoma and breast cancer cells. The cytotoxic effects of pimavanserin were evaluated by SRB assay in the above mentioned cancer cells. […]

[2] = test system: Akt, STAT3 and sonic hedgehog signaling in AsPC1, BxPC3, PANC1, and MIAPaCa2 cells; test: Western blot analysis of whole cell lysates; format: cell-based, human; settings: 48 hours
Protocol: Briefly, in FIG. 3A AsPC1 cells, FIG. 3B BxPC3 cells, FIG. 3C PANC1 cells, and FIG. 3D MIAPaCa2 cells, were treated with 5, 7.5 and 10 μM pimavanserin tartrate for 48 hours. Representative blots showing a concentration-dependent effect of pimavamserin tartrate on pAkt(S473), pSTAT3(Y705), c-Myc, Oct-4, SOX-2, NANOG, CD44, GLI1, cleaved caspase3. β-actin was used as a loading control. Figures shown are the representative blots of at least three independent tests.
Western blot analysis. AsPC1, BxPC3, PANC1, and MIAPaCa2 cells were treated with varying concentrations of pimavanserin tartrate for 48 hours. After 48 hours, cells were collected and subjected to PBS wash twice. The whole cell lysates were prepared using 4% (w/v) CHAPS in urea-tris buffer. Protein content in the lysates were estimated using Bradford reagent (Bio-rad, California, USA). 40 μg of protein from whole cell lysates were subjected to SDS-PAGE and the resolved proteins were transferred onto PVDF membrane. The membranes were probed for primary antibodies against pSTAT3(Y705), pAkt(S473), β-catenin, c-Myc, OCT4, SOX-2, NANOG, CD44, GLI1, cleaved caspase-3 and β-actin. All primary antibodies were procured from Cell Signaling Technologies (Danvers, Mass.) except β-actin (Sigma Aldrich, St. Louis, Mo.). Dilution factor was 1:1000 for all the antibodies from Cell Signaling and 1:2000 for β-actin antibody. The membranes were developed as described by the present inventors (16).
Inhibition of Akt, STAT3 and sonic hedgehog signaling by pimavanserin. Since significant growth suppressive effects and apoptosis by pimavanserin treatment were observed, the inventors further elucidated the molecular mechanism by which pimavanserin mediates the above-mentioned effects. The inventors performed western blot analysis using whole cell lysates from AsPC1, BxPC3, PANC1, and MIAPaCa2 cells treated with 0, 5, 7.5 and 10 μM pimavanserin for 48 hours. […] Akt and STAT3 signaling modulates OCT-4, SOX-2, NANOG to activate GLI1, a transcription factor involved in sonic hedgehog signaling (7).

[3] = test system: behavioral activity of mice; test: Mice behavioral analysis (Versamax); format: in vivo; settings: after 67 days of 10 mg/kg; mice bearing orthotopic pancreatic tumors
Protocol: In orthotopic experiment, behavioral activity was measured using Versamax (Accuscan instruments) after 67 days of oral administration of 10 mg/kg pimavanserin tartrate. The following were measured, in FIG. 6A total distance; FIG. 6B horizontal activity' FIG. 6C vertical activity; and FIG. 6D ambulatory activity. Values are plotted as mean±SEM.
Mice behavioral analysis. In orthotopic studies, the behavioral activity of mice was analyzed after chronic administration of pimavanserin tartrate for […]. The behavioral analysis was performed by Versamax (Accuscan Instruments Inc., Columbus, Ohio, USA) as previously described by the present inventors (7, 12).
Pimavanserin tartrate is an anti-psychotic drug used for the treatment of Parkinson disease. Owing to its action on the central nervous system, the behavioral activity of mice after long-term pimavanserin tartrate administration was assessed. The behavioral activity of mice was monitored after 67 days of 10 mg/kg pimavanserin treatment using Versamax (Accuscan Instruments Inc.).

[4] = 0, 5, 7.5 and 10 μM, all the cell lines tested, concentration dependent

Structure (SMILES): CC(C)COc1ccc(CNC(=O)N(Cc2ccc(F)cc2)C2CCN(C)CC2)cc1 [pimavanserin, N-(4-fluorophenylmethyl)-N-(1-methylpiperidin-4-yl)-N′-(4-(2-methylpropyloxy)phenylmethyl)carbamide]
- IC50 ([1]; 24 hours): 7 to 15 µM
- IC50 ([1]; 48 hours): 3 to 8 µM
- IC50 ([1]; 72 hours): 3 to 8 µM
- expression of GLI1 [2, 4]: significantly inhibited
- phosphorylation of STAT3 at Tyr705 [2, 4]: significantly inhibited
- cancer stem cell markers OCT4, SOX-2, NANOG and CD44 [2]: remarkable inhibition
- phosphorylation of Akt at Ser473 ([2]; AsPC1, BxPC3, and MIAPaCa2 cells): significantly reduced
- expression of β-catenin ([2]; all the cell lines tested): reduced
- cleavage of caspase 3 ([2]; pancreatic cancer cells, concentration dependent): significant cleavage
- behavioral activity parameters (total distance, horizontal, vertical and ambulatory activity) vs control [3]: did not change

— patent US11357766B2, “Compositions and methods for treating cancer” (Texas Tech University System, priority 2017, dated 2022)
